Laboratory results reported in patent US20240139154A1, “Methods of Reducing Risk of Prostate Cancer Progression” (Astellas Pharma Inc., priority 2021, published 2024).
Like-named read-outs stand apart in the source and are kept apart here.

What was measured:
serum PSA = assay: ENACT study: time to PSA progression and secondary rise in serum PSA; format: in vivo, human; conditions: for Hazard Ratio (95% CI), time to PSA progression: Cox regression
Description: (§1) Secondary endpoints were (1) Incidence of negative biopsies for cancer at 1 year and 2 years; (2) percentage of cancer-positive cores at 1 year and 2 years; (3) time to PSA progression; and (4) incidence of a secondary rise in serum PSA at 1 year and 2 years. “PSA progression” is defined as a ≥25% increase in serum PSA from baseline, a ≥25% increase above nadir, or an absolute increase of ≥2 ng/mL.
(§2) Secondary endpoint of incidence of negative biopsy for cancer was summarized using frequencies and percentages at one and two years by treatment groups. […] Analysis of time to PSA progression was performed using the same method used to analyze the primary endpoint. P-values were adjusted using the Bonferroni-Holm method to control type I error at 0.05 for selected secondary endpoints.

[1] = ENACT study: adverse events (safety set); format: in vivo, human; conditions: During 1-year continued follow-up period, n = 112
[2] = system: low risk or intermediate risk prostate cancer; conditions: for Hazard Ratio (95% CI), time to prostate cancer progression: enzalutamide/AS, Cox regression, HR<1 favors enzalutamide
[3] = system: low risk or intermediate risk prostate cancer; assay: ENACT study: biopsy outcomes (negative biopsies, percentage of cancer-positive cores) at 1 and 2 years; format: in vivo, human
From the text: This was followed by a one year follow up period, and a further continued follow-up period of at least one-year, until the last patient completed the 24-month visit.
as §1, §2

[4] = ENACT study: adverse events (safety set); format: in vivo, human
From the text: The full analysis set (FAS) was the patients who were enrolled in the study and randomized to one or the other of the study arms. The safety set (SAF) was redefined in the Statistical Analysis Plan (SAP) to include only subjects who took the study drug. The FAS was 227 patients (113 in the active surveillance arm, 114 in the enzalutamide arm). The SAF had 112 subjects in the enzalutamide arm.
As expected, the incidence of Drug-Related Adverse Events (AEs) were reported in 92.0% (103/112) of the enzalutamide patients during the treatment period plus 30 days. Of the patients on active surveillance, 54.9% (62/113) experienced an adverse event from randomization until date completed 12 months on study plus 30 days. The most common Drug-Related AE seen in the enzalutamide group was fatigue (52.7%). Adverse events which occurred in ≥3.5% of enzalutamide patients were fatigue (55.4%), gynecomastia (36.6%), nipple pain (30.4%), breast tenderness (25.9%), and erectile dysfunction (17.9%). The only AE that occurred in ≥3.5% of the patients on active surveillance was hypertension (7.1%). […] Observed AE data were consistent with the known safety profile of enzalutamide.

## CNC(=O)c1ccc(N2C(=S)N(c3ccc(C#N)c(C(F)(F)F)c3)C(=O)C2(C)C)cc1F [enzalutamide, Enzalutamide]
Serum PSA; 1 year, n = 114
  Incidence of a secondary rise in serum PSA at 1 year, PSA response, %: (24.6) %
Serum PSA; 2 years, n = 100
  Incidence of a secondary rise in serum PSA at 2 years, PSA response, %: (92.0) %
Serum PSA; FAS, Kaplan-Meier
  Median Time to PSA Progression (95% CI): 14.82
Serum PSA; FAS, N = 114
  No. Censored (time to PSA progression), %: 15.8%
  No. of Events (PSA progression), %: 84.2%
Serum PSA; enzalutamide vs AS, 1 year
  OR (95% CI), secondary rise in serum PSA at 1 year: 0.1 (0.08, 0.26)
Serum PSA; enzalutamide vs AS, 2 years
  OR (95% CI), secondary rise in serum PSA at 2 years: 1.1 (0.37, 3.53)
Serum PSA; enzalutamide vs AS, FAS
  Hazard Ratio (95% CI), time to PSA progression: 0.714 (0.525, 0.972)
Serum PSA; enzalutamide vs AS, FAS, listed as Enzalutamide
  Hazard Ratio (95% CI), time to PSA progression: 0.71 (0.53, 0.97)
Serum PSA; n = 114
  Time to PSA progression, Median (95% CI): 14.8 months
Serum PSA; observed at month 15 onwards
  PSA rebound following cessation of treatment: PSA rebound was demonstrated
Serum PSA; versus AS
  delay of PSA progression: 6 months
[1]
  AEs leading to death, %: 1.8%
[2]; FAS, Kaplan-Meier, NR = not reached
  Median Progression Free Survival / median time to pathological or therapeutic prostate cancer progression: not reached
[2]; FAS, N = 114
  No. Censored (progression free survival), %: 71.9%
[2]; FAS, N = 114, 160 mg/day
  No. of Events (prostate cancer progression), %: 28.1%
[2]; compared to patients on active surveillance
  reduction in risk of prostate cancer progression: 46%
[2]; FAS
  Hazard Ratio (95% CI), time to prostate cancer progression: 0.542 (0.330, 0.892)
[2]; FAS, listed as Enzalutamide
  Hazard Ratio (95% CI), time to prostate cancer progression: 0.54 (0.33, 0.89)
[3]; 1 year, n = 90
  Percentage of cancer-positive cores at 1 year, LS mean change from baseline ± SE: −12.97 ± 1.99%
[3]; 1 year, n = 114
  Biopsy result at 1 year: Positive, %: (46.5) %
  Biopsy result at 1 year: Unknown, %: (18.4) %
  Incidence of negative biopsy at 1 year: Negative, %: 35.1%
[3]; 2 years, n = 53
  Percentage of cancer-positive cores at 2 years, LS mean change from baseline ± SE: −6.68 ± 2.37%
[3]; 2 years, n = 100
  Biopsy result at 2 years: Positive, %: (47.0) %
  Biopsy result at 2 years: Unknown, %: (34.0) %
  Incidence of negative biopsy at 2 years: Negative, %: 19.0%
[3]; between baseline and year two
  reduction in the mean percentage of cancer-positive cores within the enzalutamide arm: 6.7%
[3]; enzalutamide vs AS, 1 year
  Percentage of cancer-positive cores at 1 year, Difference in LS means ± SE: −10.07 ± 2.40%
[3]; enzalutamide vs AS, 2 years
  Percentage of cancer-positive cores at 2 years, Difference in LS means ± SE: −5.15 ± 3.17%
[3]; enzalutamide vs AS, exact logistic regression, 1 year
  OR (95% CI), negative biopsy at 1 year: 3.5 (1.76, 6.92)
[3]; enzalutamide vs AS, exact logistic regression, 2 years
  OR (95% CI), negative biopsy at 2 years: 1.6 (0.66, 4.00)
[3]; enzalutamide vs AS, exact logistic regression, 2 years, listed as Enzalutamide
  OR (95% CI), negative biopsy at 2 years: 1.6 (0.66, 4.00)
[3]; one year
  likelihood of a negative biopsy at one year compared to the control population: at least three times more likely
[4]; During 1-year treatment period, n = 112
  AEs leading to death, %: 0.9%
[4]; human, in vivo
  most common Drug-Related AE: fatigue: 52.7%
[4]; human, in vivo, 1 year
  Drug-related AEs leading to discontinuation of study drug, %: 7.1%
  Drug-related AEs ≥ grade 3, %: 5.4%
  Drug-related AEs, %: 88.4%
  Drug-related SAEs, %: 2.7%
  TEAEs ≥ grade 3, %: 9.8%
[4]; human, in vivo, 12 months
  Adverse Event: Alopecia, %: (9.8%)
  Adverse Event: Hypertension, %: (7.1%)
  Adverse Event: Libido Decreased, %: (8.0%)
[4]; in vivo
  tolerability of enzalutamide monotherapy: well-tolerated
